# Assay results from patent US4386077A (Made Italiana s.r.l, priority 1981, dated 1983).
# Columns and labels:
# [1] = Cumulative urinary elimination in Cynomolgus monkeys; format: in vivo, Cynomolgus monkey
# Method: (§1) Blood was collected at the following time: 0 (basal values) and 5, 10, 15, 30, 60 minutes, 2, 4, 7, 24 and 30 hours after the administration. From the end of the curves serum concentration/time, it was possible to calculate the constant of the apparent elimination speed from the organism as well as the relative half-life. These values were utilized in calculating the AUC T30 hours →T.infin. for the total of the curves concentration/time in the same animal. The AUC To →T30 hrs was calculated by means of the trapezium methods. […] For each dosage, a randomized cross-over procedure was used. Seriated blood samples were collected until 30 hours after each administration. From the single curves concentration/time it was possible to calculate the AUC To →T30 hrs. After each administration, including the intravenous one, urine was collected at the following time intervals: 0-24 hours, 24-48 hours and 48-72 hours.
# [2] = Serum kinetics and absolute bioavailability of ^14 C-labelled CDP-choline and "ASONIC" after i.v. and oral administration in Cynomolgus monkeys; format: in vivo, Cynomolgus monkey; settings: average and S.D. of 2 monkeys
# Method: as §1, with “From” for “Blood was collected at the following time: 0 (basal values) and 5, 10, 15, 30, 60 minutes, 2, 4, 7, 24 and 30 hours after the administration. From”
compound,measurement,setting,value
"C[N+](C)(C)CCOP(=O)(O)OP(=O)([O-])OC[C@H]1O[C@@H](n2ccc(N)nc2=O)[C@H](O)[C@@H]1O [CDP-choline, cytidine diphosphocholine]",Cumulative urinary elimination,"[1]; average and S.D. of 2 monkeys, 25 mg/kg i.v., 0-24 hr",50.65 ± 2.33 % OF THE ADMINISTERED DOSE
same,Cumulative urinary elimination,"[1]; average and S.D. of 2 monkeys, 25 mg/kg i.v., 0-72 hr",53.5 ± 3.25 % OF THE ADMINISTERED DOSE
same,Cumulative urinary elimination,"[1]; average and S.D. of 2 monkeys, 25 mg/kg i.v., 24-48 hr",2.5 ± 0.99 % OF THE ADMINISTERED DOSE
same,Cumulative urinary elimination,"[1]; average and S.D. of 2 monkeys, 25 mg/kg i.v., 48-72 hr",0.35 ± 0.07 % OF THE ADMINISTERED DOSE
same,Cumulative urinary elimination,"[1]; average and S.D. of 2 monkeys, 200 mg/kg per os, 0-24 hr",42.75 ± 6.15 % OF THE ADMINISTERED DOSE
same,Cumulative urinary elimination,"[1]; average and S.D. of 2 monkeys, 200 mg/kg per os, 0-72 hr",47.5 ± 3.11 % OF THE ADMINISTERED DOSE
same,Cumulative urinary elimination,"[1]; average and S.D. of 2 monkeys, 200 mg/kg per os, 24-48 hr",4.2 ± 2.83 % OF THE ADMINISTERED DOSE
same,Cumulative urinary elimination,"[1]; average and S.D. of 2 monkeys, 200 mg/kg per os, 48-72 hr",0.55 ± 0.21 % OF THE ADMINISTERED DOSE
same,Cumulative urinary elimination,"[1]; average and S.D. of 2 monkeys, 400 mg/kg per os, 0-24 hr",31.3 ± 9.3 % OF THE ADMINISTERED DOSE
same,Cumulative urinary elimination,"[1]; average and S.D. of 2 monkeys, 400 mg/kg per os, 0-72 hr",37.65 ± 8.98 % OF THE ADMINISTERED DOSE
same,Cumulative urinary elimination,"[1]; average and S.D. of 2 monkeys, 400 mg/kg per os, 24-48 hr",5.6 ± 0.56 % OF THE ADMINISTERED DOSE
same,Cumulative urinary elimination,"[1]; average and S.D. of 2 monkeys, 400 mg/kg per os, 48-72 hr",0.75 ± 0.21 % OF THE ADMINISTERED DOSE
same,Cumulative urinary elimination,"[1]; monkey no. 1, 25 mg/kg i.v., 0-24 hr",49 % OF THE ADMINISTERED DOSE
same,Cumulative urinary elimination,"[1]; monkey no. 1, 25 mg/kg i.v., 0-72 hr",51.2 % OF THE ADMINISTERED DOSE
same,Cumulative urinary elimination,"[1]; monkey no. 1, 25 mg/kg i.v., 24-48 hr",1.8 % OF THE ADMINISTERED DOSE
same,Cumulative urinary elimination,"[1]; monkey no. 1, 25 mg/kg i.v., 48-72 hr",0.4 % OF THE ADMINISTERED DOSE
same,Cumulative urinary elimination,"[1]; monkey no. 1, 200 mg/kg per os, 0-24 hr",38.4 % OF THE ADMINISTERED DOSE
same,Cumulative urinary elimination,"[1]; monkey no. 1, 200 mg/kg per os, 0-72 hr",45.3 % OF THE ADMINISTERED DOSE
same,Cumulative urinary elimination,"[1]; monkey no. 1, 200 mg/kg per os, 24-48 hr",6.2 % OF THE ADMINISTERED DOSE
same,Cumulative urinary elimination,"[1]; monkey no. 1, 200 mg/kg per os, 48-72 hr",0.7 % OF THE ADMINISTERED DOSE
same,Cumulative urinary elimination,"[1]; monkey no. 1, 400 mg/kg per os, 0-24 hr",24.7 % OF THE ADMINISTERED DOSE
same,Cumulative urinary elimination,"[1]; monkey no. 1, 400 mg/kg per os, 0-72 hr",31.3 % OF THE ADMINISTERED DOSE
same,Cumulative urinary elimination,"[1]; monkey no. 1, 400 mg/kg per os, 24-48 hr",6.0 % OF THE ADMINISTERED DOSE
same,Cumulative urinary elimination,"[1]; monkey no. 1, 400 mg/kg per os, 48-72 hr",0.6 % OF THE ADMINISTERED DOSE
same,Cumulative urinary elimination,"[1]; monkey no. 2, 25 mg/kg i.v., 0-24 hr",52.3 % OF THE ADMINISTERED DOSE
same,Cumulative urinary elimination,"[1]; monkey no. 2, 25 mg/kg i.v., 0-72 hr",55.8 % OF THE ADMINISTERED DOSE
same,Cumulative urinary elimination,"[1]; monkey no. 2, 25 mg/kg i.v., 24-48 hr",3.2 % OF THE ADMINISTERED DOSE
same,Cumulative urinary elimination,"[1]; monkey no. 2, 25 mg/kg i.v., 48-72 hr",0.3 % OF THE ADMINISTERED DOSE
same,Cumulative urinary elimination,"[1]; monkey no. 2, 200 mg/kg per os, 0-24 hr",47.1 % OF THE ADMINISTERED DOSE
same,Cumulative urinary elimination,"[1]; monkey no. 2, 200 mg/kg per os, 0-72 hr",49.7 % OF THE ADMINISTERED DOSE
same,Cumulative urinary elimination,"[1]; monkey no. 2, 200 mg/kg per os, 24-48 hr",2.2 % OF THE ADMINISTERED DOSE
same,Cumulative urinary elimination,"[1]; monkey no. 2, 200 mg/kg per os, 48-72 hr",0.4 % OF THE ADMINISTERED DOSE
same,Cumulative urinary elimination,"[1]; monkey no. 2, 400 mg/kg per os, 0-24 hr",37.9 % OF THE ADMINISTERED DOSE
same,Cumulative urinary elimination,"[1]; monkey no. 2, 400 mg/kg per os, 0-72 hr",44.0 % OF THE ADMINISTERED DOSE
same,Cumulative urinary elimination,"[1]; monkey no. 2, 400 mg/kg per os, 24-48 hr",5.2 % OF THE ADMINISTERED DOSE
same,Cumulative urinary elimination,"[1]; monkey no. 2, 400 mg/kg per os, 48-72 hr",0.9 % OF THE ADMINISTERED DOSE
same,Plasmatic concentration,"[2]; 25 mg/kg i.v., 5'",10561 ± 2620 DPM/ml serum
same,Plasmatic concentration,"[2]; 25 mg/kg i.v., 15'",4088 ± 1299 DPM/ml serum
same,Plasmatic concentration,"[2]; 25 mg/kg i.v., 30'",2846 ± 877 DPM/ml serum
same,Plasmatic concentration,"[2]; 25 mg/kg i.v., 60'",2127 ± 704 DPM/ml serum
same,Plasmatic concentration,"[2]; 25 mg/kg i.v., 2 hr",2397 ± 329 DPM/ml serum
same,Plasmatic concentration,"[2]; 25 mg/kg i.v., 4 hr",3064 ± 431 DPM/ml serum
same,Plasmatic concentration,"[2]; 25 mg/kg i.v., 7 hr",3566 ± 631 DPM/ml serum
same,Plasmatic concentration,"[2]; 25 mg/kg i.v., 24 hr",2035 ± 315 DPM/ml serum
same,Plasmatic concentration,"[2]; 25 mg/kg i.v., 30 hr",1947 ± 280 DPM/ml serum
same,Plasmatic concentration,"[2]; 200 mg/kg per os, 15'",61 DPM/ml serum
same,Plasmatic concentration,"[2]; 200 mg/kg per os, 30'",45 DPM/ml serum
same,Plasmatic concentration,"[2]; 200 mg/kg per os, 45'",56 ± 4 DPM/ml serum
same,Plasmatic concentration,"[2]; 200 mg/kg per os, 60'",91 ± 4.2 DPM/ml serum
same,Plasmatic concentration,"[2]; 200 mg/kg per os, 4 hr",154 ± 26 DPM/ml serum
same,Plasmatic concentration,"[2]; 200 mg/kg per os, 7 hr",774 ± 110 DPM/ml serum
same,Plasmatic concentration,"[2]; 200 mg/kg per os, 9 hr",669 ± 105 DPM/ml serum
same,Plasmatic concentration,"[2]; 200 mg/kg per os, 24 hr",378 ± 55 DPM/ml serum
same,Plasmatic concentration,"[2]; 200 mg/kg per os, 30 hr",344 ± 58 DPM/ml serum
same,Plasmatic concentration,"[2]; 400 mg/kg per os, 30'",35 DPM/ml serum
same,Plasmatic concentration,"[2]; 400 mg/kg per os, 60'",61 ± 12 DPM/ml serum
same,Plasmatic concentration,"[2]; 400 mg/kg per os, 90'",40 ± 16 DPM/ml serum
same,Plasmatic concentration,"[2]; 400 mg/kg per os, 2 hr",78 ± 4.2 DPM/ml serum
same,Plasmatic concentration,"[2]; 400 mg/kg per os, 3 hr",181 ± 9.2 DPM/ml serum
same,Plasmatic concentration,"[2]; 400 mg/kg per os, 4 hr",448 ± 66 DPM/ml serum
same,Plasmatic concentration,"[2]; 400 mg/kg per os, 6 hr",1496 ± 134 DPM/ml serum
same,Plasmatic concentration,"[2]; 400 mg/kg per os, 7 hr",2636 ± 107 DPM/ml serum
same,Plasmatic concentration,"[2]; 400 mg/kg per os, 8 hr",4163 ± 101 DPM/ml serum
same,Plasmatic concentration,"[2]; 400 mg/kg per os, 9 hr",4813 ± 513 DPM/ml serum
